Data reported in patent US20260285850A1, “SUBSTITUTED OXAZOLIDINONES AND IMIDAZOLINONES AS HERBICIDES” (FMC CORPORATION, priority 2023, published 2026).

Experiments:
Format in all cases: in vivo
rice (Oryza sativa) = assay: Test B flooded paddy test, visual plant response rating 0-100; conditions: 250 g ai/ha, Flood, applied to paddy water, evaluated after 13 days
In short: (§1)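 Visual evaluation after 13 days. Water-applied treatment, 3 cm flood depth held constant, plants at 2-leaf stage at treatment.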

[1] = system: ducksalad (Heteranthera limosa); assay: as above; conditions: 250 g ai/ha, Flood, applied to paddy water, evaluated after 13 days
In short: as §1

[2] = system: barnyardgrass (Echinochloa crusgalli); assay: as above; conditions: 250 g ai/ha, Flood, applied to paddy water, evaluated after 13 days
In short: as §1

[3] = system: sedge, umbrella (small-flower umbrella sedge, Cyperus difformis); assay: as above; conditions: 250 g ai/ha, Flood, applied to paddy water, evaluated after 13 days
In short: as §1

[4] = system: barnyardgrass (Echinochloa crus-galli); assay: Test A postemergence application, visual injury rating 0-100
In short: (§2)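 Preemergence directed soil spray or postemergence spray (2-10 cm, 1-2 leaf); loam/sand mix; compound in non-phytotoxic solvent + surfactant. Greenhouse, 10 d. Visual injury vs untreated, 0 = none, 100 = complete control.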

[5] = system: ragweed (common ragweed, Ambrosia artemisiifolia); assay: as above
In short: as §2

soybean (Glycine max) [6] = assay: as above
In short: as §2

[7] = system: ryegrass, Italian (italian ryegrass, Lolium multiflorum); assay: as above
In short: as §2

[8] = system: horseweed (Erigeron canadensis); assay: as above
In short: as §2

kochia (Bassia scoparia) [9] = assay: as above
In short: as §2

[10] = system: oat, wild (wild oat, Avena fatua); assay: as above
In short: as §2

[11] = system: green foxtail (Setaria viridis); assay: as above
In short: as §2

[12] = system: wheat (Triticum aestivum); assay: as above
In short: as §2

[13] = system: blackgrass (Alopecurus myosuroides); assay: as above
In short: as §2

[14] = system: palmer (palmer amaranth, palmer pigweed, Amaranthus palmeri); assay: as above
In short: as §2

corn (Zea mays) [15] = assay: as above
In short: as §2

[16] = system: barnyardgrass (Echinochloa crus-galli); assay: Test A preemergence soil spray, visual injury rating 0-100; conditions: 10 days
In short: as §2

[17] = system: ragweed (common ragweed, Ambrosia artemisiifolia); assay: as above; conditions: 10 days
In short: as §2

soybean (Glycine max) [18] = assay: as above; conditions: 10 days
In short: as §2

[19] = system: ryegrass, Italian (italian ryegrass, Lolium multiflorum); assay: as above; conditions: 10 days
In short: as §2

kochia (Bassia scoparia) [20] = assay: as above; conditions: 10 days
In short: as §2

[21] = system: oat, wild (wild oat, Avena fatua); assay: as above; conditions: 10 days
In short: as §2

[22] = system: green foxtail (Setaria viridis); assay: as above; conditions: 10 days
In short: as §2

[23] = system: wheat (Triticum aestivum); assay: as above; conditions: 10 days
In short: as §2

[24] = system: blackgrass (Alopecurus myosuroides); assay: as above; conditions: 10 days
In short: as §2

[25] = system: palmer (palmer amaranth, palmer pigweed, Amaranthus palmeri); assay: as above; conditions: 10 days
In short: as §2

corn (Zea mays) [26] = assay: as above; conditions: 10 days
In short: as §2

[27] = 62 g ai/ha, postemergence, 10 days, 0 = no effect, 100 = complete control
[28] = Postemergence, 16 g ai/ha, greenhouse 10 days, 0 no effect, 100 complete control
[29] = 62 g ai/ha, 0 = no effect, 100 = complete control

COC(=O)COC(=O)C1=CCC(NC(=O)C2(C)CN(c3cc(F)cc(F)c3)C(=O)O2)C1 (centres unmarked) [Compound 107]
60: Ryegrass, Italian plant response rating (0-100) [7, 27] | Blackgrass plant response rating (0-100) [13, 27]
10: Kochia plant response rating (0-100) (kochia (Bassia scoparia) [9]; [27]) | Barnyardgrass plant response rating (0-100) [16, 29] | Ryegrass, Italian plant response rating ([19]; 16 g ai/ha, 0 to 100 scale) | Wheat plant response rating (0-100) [23, 29]
100: Corn plant response rating (0-100) (corn (Zea mays) [15]; [27])
80: Barnyardgrass plant response rating (0-100) [4, 27]
0: Plant response rating, Rice (0 to 100 scale, 0 is no effect and 100 is complete control) (rice (Oryza sativa)) | Plant response rating, Ducksalad (0 to 100 scale, 0 is no effect and 100 is complete control) [1] | Plant response rating, Barnyardgrass (0 to 100 scale, 0 is no effect and 100 is complete control) [2] | Plant response rating, Sedge, Umbrella (0 to 100 scale, 0 is no effect and 100 is complete control) [3] | Barnyardgrass plant response rating (0 to 100 scale) [4, 28] | Ragweed plant response rating (0 to 100 scale) [5, 28] | Soybean plant response rating (0 to 100 scale) (soybean (Glycine max) [6]; [28]) | Ryegrass, Italian plant response rating (0 to 100 scale) [7, 28] | Horseweed plant response rating (0 to 100 scale) [8, 28] | Kochia plant response rating (0 to 100 scale) (kochia (Bassia scoparia) [9]; [28]) | Oat, Wild plant response rating (0 to 100 scale) [10, 28] | Foxtail, Green plant response rating (0 to 100 scale) [11, 28] | Wheat plant response rating (0 to 100 scale) [12, 28] | Blackgrass plant response rating (0 to 100 scale) [13, 28] | Pigweed, Palmer plant response rating (0 to 100 scale) [14, 28] | Corn plant response rating (0 to 100 scale) (corn (Zea mays) [15]; [28]) | Barnyardgrass plant response rating ([16]; 16 g ai/ha, 0 to 100 scale) | Ragweed plant response rating ([17]; 16 g ai/ha, 0 to 100 scale) | Ragweed plant response rating (0-100) [17, 29] | Soybean plant response rating (soybean (Glycine max) [18]; 16 g ai/ha, 0 to 100 scale) | Soybean plant response rating (0-100) (soybean (Glycine max) [18]; [29]) | Kochia plant response rating (kochia (Bassia scoparia) [20]; 16 g ai/ha, 0 to 100 scale) | Kochia plant response rating (0-100) (kochia (Bassia scoparia) [20]; [29]) | Oat, Wild plant response rating ([21]; 16 g ai/ha, 0 to 100 scale) | Oat, Wild plant response rating (0-100) [21, 29] | Foxtail, Green plant response rating ([22]; 16 g ai/ha, 0 to 100 scale) | Foxtail, Green plant response rating (0-100) [22, 29] | Wheat plant response rating ([23]; 16 g ai/ha, 0 to 100 scale) | Blackgrass plant response rating ([24]; 16 g ai/ha, 0 to 100 scale) | Blackgrass plant response rating (0-100) [24, 29] | Pigweed, Palmer plant response rating ([25]; 16 g ai/ha, 0 to 100 scale) | Pigweed, Palmer plant response rating (0-100) [25, 29] | Corn plant response rating (corn (Zea mays) [26]; 16 g ai/ha, 0 to 100 scale) | Corn plant response rating (0-100) (corn (Zea mays) [26]; [29])
20: Ragweed plant response rating (0-100) [5, 27] | Oat, Wild plant response rating (0-100) [10, 27] | Foxtail, Green plant response rating (0-100) [11, 27]
50: Wheat plant response rating (0-100) [12, 27]
40: Soybean plant response rating (0-100) (soybean (Glycine max) [6]; [27]) | Ryegrass, Italian plant response rating (0-100) [19, 29]
30: Horseweed plant response rating (0-100) [8, 27] | Pigweed, Palmer plant response rating (0-100) [14, 27]
